Assay results published in paper PMC8386747, “Structure–activity relationship, in vitro and in vivo evaluation of novel dienyl sulphonyl fluorides as selective BuChE inhibitors for the treatment of Alzheimer's disease” (Journal of Enzyme Inhibition and Medicinal Chemistry, 2021).
“Also recorded” adds a separate entry of the source.

Tests used:
[1] = system: BuChE; design: method as in PMID 31136894; settings: cited from earlier work
[2] = system: BACE-1; design: method as in PMID 28749667, PMID 26696252; settings: cited from earlier work
[3] = system: GSK-3β; design: method as in PMID 28749667, PMID 26696252; settings: read-out: GSK-3μ IC50; cited from earlier work
[4] = PAMPA-BBB class
[5] = molecular target: T1, eqBuChE (Equus caballus, UniProt P81908); assay: Kinetic study of eqBuChE inhibition; type: biochemical, horse
T1 construct: BuChE from equine serum (C4290-1KU; Sigma); purchased Sigma C4290-1KU; host or cells: equine serum
Description: Kinetic studies were performed with the same test conditions, using six concentrations of substrate (0.1‒1 mM) and four concentrations of inhibitor (0‒0.08 mM). The apparent inhibition constants and kinetic parameters were calculated in the “Enzyme Kinetics” module of Prism8. The effect of compound A10 concentration on the catalytic activity of BuChE at 37 °C was investigated. Assay conditions were same as described in the assay protocol except that the final concentration of enzyme was varied (0‒0.72 U/mL). Concentrations of compound A10 were 0, 0.02, 0.04, 0.08 µM respectively, for the determination of reversible as well as irreversible binding of inhibitors at enzyme.

[6] = system: Aβ1-42-induced cognitive dysfunction; assay: Morris water maze in Aβ1-42-induced cognitive impairment model; type: in vivo, mouse; settings: mice, 10 mg/kg po Day 3 to Day 14
Description: All experiments were performed according to the National Institutes of Health Guide for the Care and Use of Laboratory Animals. The Measures for the Care and Treatment of Laboratory Animals were approved by the Animal Care and Use Committee of Anhui Medical University. Male ICR mice were used in the animal centre of Anhui Medical University (Hefei). Male mice (18‒24 g) aged 6‒8 weeks, 10 mice per cage, room temperature 22 ± 2 °C, light/dark (12:12 h) cycle. These animals had access to food and water prior to testing. The ambient temperature and relative humidity (50%) of the room remained consistent throughout all tests. Behavioural experiments: MWM was used for cognitive function, and mice were randomly selected for behavioural experiments. Each experimental group consisted of 8‒10 mice/dose. The experimental time was from 08:00 to 14:00, and the mice were sacrificed by cervical dislocation immediately after the end of the experiment. […]. Aβ1-42 aggregation was induced by dissolving the Aβ1-42 peptide in DMSO as a stock solution of 5 mM and incubating it in saline at a final concentration of 2 mg/mL for 24 h at 37 °C.
The behavioural study was a water maze experimental behavioural study on days 10 − 15, including a 5-day learning and memory training, and a test assessment on day 6. MWM consists of a water-filled pool (grey, circular, 1.20 m in diameter, 0.60 m in height) and a platform with adjustable height and movable position. The pool was divided into four equal quadrants (compass position: NE, NW, SE, SW) using a computerised video tracking system (SMART, version 3.0; Panlab, Spain). The pool was filled with water, generally about 48 cm below the edge, to prevent animals from jumping out, and the water temperature was maintained at 22 ± 1 °C. […] The time to reach the hidden platform (i.e. escape latency), the distance to reach the hidden platform, the distance in the target (NW) area, and the average speed were recorded. […]

[7] = system: male ICR mice; assay: In vivo hepatotoxicity evaluation
Description: The combination was administered intragastrically at a dose of 30 mg/kg body weight and the same amount of vehicle (po). Heparinised serum was collected from the retrobulbar plexus at 8, 22, and 36 h after administration for hepatotoxicity evaluation. The activities of alanine aminotransferase (ALT) and aspartate aminotransferase (AST), indicators of liver injury, were measured with corresponding kits (EF551 and EF550 for ALT, EH027 and EH548 for AST). […] After the last collection of post-globular blood, mice were sacrificed and livers were taken for immunohistochemical morphological observation. We isolated two 3-mm sections of each liver from the hilum to the edge of the left lateral lobe using an ultra-thin semi-automatic microtome (LeicaRM2245, Germany), immediately placed them in 10% buffered formaldehyde, fixed them for 2 days, and embedded them in paraffin blocks using a paraffin-embedding station (LeicaEG1150H, Germany). Subsequently, five µM sections were prepared from these paraffin sections, deparaffinized, stained with haematoxylin and eosin or using the periodic acid-Schiff glycogen staining method.

[8] = molecular target: T2, recombinant human AChE (hAChE) (Homo sapiens, UniProt P22303); assay: hAChE inhibition assay (Ellman's assay); type: biochemical
T2 construct: purchased Sigma C1682
Description: The solution was diluted to 5 concentrations of 200, 100, 10, 1 and 0.1 µM in ethanol. Measurements were performed using 96-well plates. Buffer (40 µL), sample at a series of concentrations (10 µL), AChE (10 µL), and dibutyl succinate (20 µL) were successively added. The mixture was then incubated for 5 min at 37 °C. Then, 20 µL of ACh or BuCh were added and the reaction started. […] For the blank value, 10 µL of water was used instead of the inhibitor solution. The activity of the inhibitor was expressed as a logarithmic plot of the percentage of enzyme activity (with 100% as the reference) versus the concentration of the compound. IC50 values were determined graphically from inhibition curves (log inhibitor concentration versus percent inhibition).

[9] = system: ICR mice; assay: In vivo acute toxicity evaluation; design: species or system mouse
Description: […]. Compound A10 was suspended in a mixture of DMSO, PEG 400 and physiological saline (10/50/40, v/v/v). After fasting for 8‒12 h, the mice were intragastrically administered with the preparation or test compound A10 1.0 g/kg on the first day. The behaviour, appearance and body weight changes of the mice were observed and recorded for 2 weeks. The body weights of the mice in the control group and experimental group were compared and summarised with GraphPadPrism8.0 software.

[10] = system: PC12 cells; assay: Neuroprotection assay against H2O2 damage; type: cell-based; settings: PC12, 100 µM H2O2 (model 47.3%), not given
[11] = system: human hepatoblastoma cells HepG2; assay: Cytotoxicity MTT assay on HepG2 cells; type: cell-based; settings: 24 h
Description: (§1) The cytotoxic effect was detected by MTT colorimetric assay. Human hepatoblastoma cells HepG2 and human normal hepatocyte L02 were maintained at 37 °C in a 5% humidified incubator containing 10% foetal bovine serum, 100 U/mL penicillin and […] streptomycin. HepG2 cells and L02 cells were seeded in 96-well plates at 1 × 10^4 cells per well. After cell culture for 24 h, different compounds were diluted in DMEM for 24 h. […] of 5 mg/mL MTT reagent was added for incubation for 4 h. After 4 h, the cell culture medium was removed and […] of DMSO was added to dissolve formazan. The optical density was measured at 492 nm (OD492). Cell viability was calculated from three independent experiments. The density of formazan formed in blank group was set as 100% of viability. Cell viability (%) ¼ compound (OD492/blank (OD492) ×100%

[12] = molecular target: T3, AChE from electric eel (Electrophorus electricus, UniProt O42275); assay: EeAChE inhibition assay (Ellman's method); type: biochemical; settings: read-out: AChE % inhibition at 20 µM; AChE from electric eel; 20 µM; na = no inhibitory activity at 20 µM
T3 construct: assays were performed on AChE from electric eel (C3389-500UN; Sigma); purchased Sigma C3389-500UN
Description: (§2) According to the Ellman’s method, assays were performed on AChE from electric eel (C3389-500UN; Sigma) and BuChE from equine serum (C4290-1KU; Sigma). The experiment was performed in 48-well plates in a final volume of 500 µL. Each well contained 0.036 U/mL of eeAChE or eqBuChE, and 0.1 M pH 8 PBS. They were pre-incubated for 20 min at different compound concentrations at 37 °C. […] The DTNB produces the yellow anion 5-thio-2-nitrobenzoic acid along with the enzymatic degradation of ACh or BuCh. Changes in absorbance were measured at 410 nm after 20 min in a PerkinElmer VICTOR Nivo reader. The IC50 values were calculated graphically from inhibition curves (log inhibitor concentration vs percent of inhibition). A control experiment was performed under the same conditions without inhibitor and the blank contained buffer, DMSO, DTNB, and substrate.

[13] = molecular target: T4, BuChE from human serum (hBuChE) (Homo sapiens, UniProt P06276); assay: hBuChE inhibition assay (Ellman's assay); type: biochemical; settings: mean ± SEM
T4 construct: BuChE from human serum (hBuChE); purchased Sigma B4186; host or cells: human serum
Description: DTNB solution (5 µM) was prepared with 0.1 M pH 8 PBS. The test compound was dissolved at a concentration of 2 × 1 0^−1 M in DMSO and stored at temperatures ranging from −20 to 4 °C as a stock solution. The solution was diluted to 5 concentrations of 200, 100, 10, 1 and 0.1 µM in ethanol. Measurements were performed using 96-well plates. Buffer (40 µL), sample at a series of concentrations (10 µL), AChE (10 µL), and dibutyl succinate (20 µL) were successively added. The mixture was then incubated for 5 min at 37 °C. Then, 20 µL of ACh or BuCh were added and the reaction started. […] For the blank value, 10 µL of water was used instead of the inhibitor solution. The activity of the inhibitor was expressed as a logarithmic plot of the percentage of enzyme activity (with 100% as the reference) versus the concentration of the compound. IC50 values were determined graphically from inhibition curves (log inhibitor concentration versus percent inhibition).

[14] = in vitro; settings: PAMPA, PAMPA-BBB
Description: The 96-well UV plate (COSTAR) was manufactured by Corning Corporation, USA, and the commercially available drugs and test compounds were initially dissolved in DMSO at a concentration of 20 mg/mL. The solution was then diluted 200-fold with PBS (pH 7.4 ± 0.1)/EtOH (70/30, v/v) solution to a final concentration of 100 µg/mL.
The test compound was dissolved in DMSO at 5 mg/mL and diluted 200-fold with universal buffer (final concentration 25 µg/mL) to prepare the secondary stock solution; 200 µL of the secondary stock solution was added to the donor well; the acceptor plate was coated with 4 µL of 20 mg/mL dodecyl porcine polar brain, and then, 200 µL of pH 7.4 universal buffer was added to the acceptor well; the acceptor plate was carefully placed on the donor plate to form a “sandwich” and maintained for 18 h; the drug concentrations in the acceptor, donor and reference wells were determined using a UV microplate reader; the experiment was repeated three times, and the concentrations of the test compound in the donor and acceptor wells were measured using a UV plate spectral reader (PerkinElmer VICT or Nivo, Finland). In at least three independent experiments, each sample was analysed at three wavelengths in a four well.

[15] = system: Aβ1-42; type: in vivo, mouse; settings: mice, Aβ1-42 icv; 10 mg/kg po; vs model group
Description: In the experiment of Aβ1-42 oligomeric injury, all mice were sacrificed after the end of behavioural study, and the brains were taken to determine the total content of Aβ1-42 with a mouse ELISA kit (Wuhan Huamei Biotechnology Co., Ltd.). Each brain tissue specimen was completely homogenised with a grinder with 10 times PBS (pH = 7.4 ± 0.1) and then centrifuged at 5000×g for 5 min. The supernatant was separated for use. Brain tissue Aβ1-42 content was calculated according to the linear regression equation.

[16] = molecular target: T5, BuChE from equine serum (Equus caballus, UniProt P81908); assay: eqBuChE inhibition assay (Ellman's method); type: biochemical; settings: BuChE from horse serum; mean ± SEM
T5 construct: BuChE from equine serum (C4290-1KU; Sigma); purchased Sigma C4290-1KU; host or cells: equine serum
Description: as §2

[17] = system: human normal hepatocyte L02; assay: Cytotoxicity MTT assay on L02 cells; type: cell-based; settings: 24 h
Description: as §1

[18] = 30 mg/kg intragastric, 8, 22 and 36 h

T1 sequence (P81908 whole entry): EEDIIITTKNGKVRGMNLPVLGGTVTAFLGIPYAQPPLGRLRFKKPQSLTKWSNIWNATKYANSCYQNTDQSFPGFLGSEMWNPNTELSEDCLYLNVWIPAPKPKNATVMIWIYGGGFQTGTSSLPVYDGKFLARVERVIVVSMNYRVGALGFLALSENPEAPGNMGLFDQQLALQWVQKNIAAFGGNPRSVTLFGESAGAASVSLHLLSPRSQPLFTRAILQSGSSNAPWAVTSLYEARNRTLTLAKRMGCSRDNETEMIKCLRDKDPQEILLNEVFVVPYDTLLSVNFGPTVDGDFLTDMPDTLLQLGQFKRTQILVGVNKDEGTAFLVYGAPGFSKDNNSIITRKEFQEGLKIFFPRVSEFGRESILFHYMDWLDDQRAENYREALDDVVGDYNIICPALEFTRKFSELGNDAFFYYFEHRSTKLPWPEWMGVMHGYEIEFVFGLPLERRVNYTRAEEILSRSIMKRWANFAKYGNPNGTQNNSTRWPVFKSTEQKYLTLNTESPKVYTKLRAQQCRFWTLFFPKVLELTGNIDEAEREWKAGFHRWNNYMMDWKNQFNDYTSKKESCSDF
T5 sequence (P81908 whole entry): as above
T4 sequence (P06276 29-602): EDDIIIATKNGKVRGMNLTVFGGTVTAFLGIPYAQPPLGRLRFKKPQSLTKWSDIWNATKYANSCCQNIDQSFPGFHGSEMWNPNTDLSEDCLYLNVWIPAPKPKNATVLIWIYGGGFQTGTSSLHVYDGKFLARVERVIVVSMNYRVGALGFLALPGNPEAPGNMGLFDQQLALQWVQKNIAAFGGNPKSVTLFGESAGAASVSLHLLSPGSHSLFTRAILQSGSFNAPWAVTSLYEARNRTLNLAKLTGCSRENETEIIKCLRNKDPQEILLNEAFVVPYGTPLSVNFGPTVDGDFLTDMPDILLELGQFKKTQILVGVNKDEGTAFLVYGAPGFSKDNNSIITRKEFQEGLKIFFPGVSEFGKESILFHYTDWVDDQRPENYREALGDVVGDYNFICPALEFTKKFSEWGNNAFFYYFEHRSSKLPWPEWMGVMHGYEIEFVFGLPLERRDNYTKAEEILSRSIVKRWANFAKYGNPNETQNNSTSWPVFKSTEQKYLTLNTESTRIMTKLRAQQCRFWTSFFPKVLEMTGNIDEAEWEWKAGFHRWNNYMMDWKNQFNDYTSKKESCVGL
T2 sequence (P22303 32-614): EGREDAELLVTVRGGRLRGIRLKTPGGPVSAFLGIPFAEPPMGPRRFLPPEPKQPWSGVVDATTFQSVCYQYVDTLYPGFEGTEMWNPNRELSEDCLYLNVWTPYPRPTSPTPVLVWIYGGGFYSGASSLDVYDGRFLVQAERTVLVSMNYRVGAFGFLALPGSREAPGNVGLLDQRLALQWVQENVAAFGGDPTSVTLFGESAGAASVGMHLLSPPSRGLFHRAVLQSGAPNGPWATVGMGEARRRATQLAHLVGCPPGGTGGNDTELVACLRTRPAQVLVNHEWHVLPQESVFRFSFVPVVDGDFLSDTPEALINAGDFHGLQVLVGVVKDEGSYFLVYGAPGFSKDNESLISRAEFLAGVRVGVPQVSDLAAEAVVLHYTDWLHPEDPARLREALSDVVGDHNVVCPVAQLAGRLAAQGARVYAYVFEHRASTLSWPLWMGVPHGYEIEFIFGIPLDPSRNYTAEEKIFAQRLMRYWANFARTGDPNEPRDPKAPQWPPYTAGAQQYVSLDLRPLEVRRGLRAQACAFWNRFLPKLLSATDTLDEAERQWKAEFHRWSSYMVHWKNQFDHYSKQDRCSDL
T3 sequence (O42275 24-633): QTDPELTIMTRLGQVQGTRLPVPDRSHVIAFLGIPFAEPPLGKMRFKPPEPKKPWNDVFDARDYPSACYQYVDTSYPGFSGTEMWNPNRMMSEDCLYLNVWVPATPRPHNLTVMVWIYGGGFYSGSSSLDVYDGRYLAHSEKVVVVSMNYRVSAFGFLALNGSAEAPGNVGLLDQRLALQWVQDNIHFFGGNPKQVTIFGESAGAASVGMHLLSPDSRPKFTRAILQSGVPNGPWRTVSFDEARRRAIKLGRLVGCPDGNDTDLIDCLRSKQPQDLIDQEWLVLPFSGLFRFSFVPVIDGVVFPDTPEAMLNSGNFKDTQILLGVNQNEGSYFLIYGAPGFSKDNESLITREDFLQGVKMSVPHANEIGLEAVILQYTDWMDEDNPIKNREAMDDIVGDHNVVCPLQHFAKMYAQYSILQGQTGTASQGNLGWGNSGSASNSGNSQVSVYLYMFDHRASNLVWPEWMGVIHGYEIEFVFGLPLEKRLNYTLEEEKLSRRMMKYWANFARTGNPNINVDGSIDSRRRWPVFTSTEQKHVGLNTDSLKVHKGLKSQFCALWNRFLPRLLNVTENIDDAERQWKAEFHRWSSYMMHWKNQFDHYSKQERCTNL

SMILES: O=C1c2cc(NS(=O)(=O)c3ccccc3OC(F)(F)F)ccc2NC2C3Nc4ccccc4C3CCN12 (stereo not shown) [Rutaecarpine-6n]
- IC50 [1]: 3600 nM

SMILES: COc1cc(/C=C/C(O)=C/C(=O)/C=C/c2ccc(OCc3ccccc3)cc2)ccc1O [curcumin derivative]
- IC50 [2]: 970 nM
- IC50 [3]: 900 nM

SMILES: COc1ccccc1C=CC=C(Br)S(=O)(=O)F [Compound A10]
- BBB penetration [4]: CNS+ (“CNS +” (high BBB permeation): Pe (× 10^‒6 cm/s) >4.0)
- type of BuChE inhibition ([5]; Lineweaver–Burk plot, eqBuChE): mixed competitive; also recorded: mixed inhibition
- reversibility of BuChE inhibition ([5]; enzyme activity vs enzyme concentration, 0–0.08 µM inhibitor): reversible
- Ki ([5]; eqBuChE, Lineweaver–Burk secondary plot, read-out: dissociation constant Ki): 29 nM
- body weight gain during treatment [6]: did not affect
- effect on Aβ1-42-induced cognitive dysfunction (MWM) ([6]; Aβ1-42 10 µg icv, 10 mg/kg): significantly improved; also recorded: improved the cognitive impairment
- serum ALT vs vehicle group [7, 18]: no significant difference
- serum AST vs vehicle group [7, 18]: no significant difference
- liver histomorphology ([7]; 30 mg/kg, 36 h after administration): didn’t show central necrosis or significant steatosis
- inhibition at 20 µM [8]: 49.7 ± 2.7%
- general condition, appearance and activity ([9]; 1.0 g/kg intragastric): no significant change in appearance and activity
- difference of body weight changes vs vehicle group ([9]; ICR mice, 1.0 g/kg intragastric, 14 days): not significant
- tolerability in vivo ([9]; ICR mice, single intragastric dose 1.0 g/kg, 14 days): well tolerated
- cell survival rate ([10]; first (lower) of the A10 concentrations): 63.3%
- cell survival rate ([10]; second (higher) of the A10 concentrations): 71.8%
- cell survival rate ([11]; 50 µM): 85.6%
- cell survival rate ([11]; 10 and 25 µM): did not decrease
- inhibition at 20 µM [12]: 40.8 ± 3.3%
- IC50 [13]: 3620 ± 320 nM
- Papp ([14]; pH 7.4, Pe): 13.7 ×10⁻⁶ cm/s
- Papp ([14]; pH 7.4, Pe×10^-6cm/s Exp. value, three independent experiments): 13.4 ×10⁻⁶ cm/s
- decrease of brain Aβ1-42 peptides [15]: 20.6%
- IC50 [16]: 21 nM
- cell survival rate ([17]; 50 µM): 87.1%
- cell survival rate ([17]; 10 and 25 µM): did not decrease
